From ChEMBL document CHEMBL1148266, “Synthesis and mitochondrial complex I inhibition of dihydroxy-cohibin A, non-THF annonaceous acetogenin analogue” (Bioorg Med Chem Lett, 2004)

Organism: Bos taurus
Test: Inhibition concentration was evaluated in NADH oxidase assay using bovine heart submitochondrial particles
Type: functional

Row | IC50 [µM] | Structure (SMILES)
1 | 4.1 | CCCCCCCCCCCC[C@H](OCOC)[C@H](CC[C@@H](OCOC)[C@H](O)CCCCCCCCCCCCC1=C[C@H](C)OC1=O)OCOC
2 | 0.02 | CCCCCCCCCCCC[C@H](O)[C@@H](O)CC[C@@H](O)[C@H](O)CCCCCCCCCCCCC1=C[C@H](C)OC1=O [DIHYDROXY-COHIBIN A]
